Among the data in the METLIN SMRT retention time set (Domingo-Almenara et al. 2019) are RP-LC retention time values, retold here.

The series can be described thus: gradient 5% acetonitrile 3 min, to 50% in 2 min, to 85% in 15 min, held 3 min, 100 µL/min. The settings on record: column: Zorbax Extend-C18 2.1 x 50 mm; eluents: water / acetonitrile, 0.1% formic acid. The method, boiled down: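 Standards, all pure, were combined into mixtures of ~100 molecules and run at 100 μL/min on a Zorbax Extend-C18 column (2.1 × 50 mm, 1.8 μm) with water and acetonitrile, each containing 0.1% formic acid. A coupled quadrupole time-of-flight mass spectrometer operated in positive and negative ionization mode. Retention time values come from computationally picked adduct peaks, each inspected manually.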
`CCOc1cccc(-c2noc(Cn3c(=O)n(C(C)C)c(=O)c4ccccc43)n2)c1` displayed an RP-LC retention time of 1190 s. With `O=C(COc1ccc(Cl)cc1)Oc1ccc2nc(N3CCOCC3)sc2c1`, the RP-LC retention time stood at 971 s. Consider `CCN1CCN(CCNC(=O)C(C)C2CCN(C(=O)c3cc4cc(Cl)ccc4[nH]3)CC2)CC1` (stereo not given), for which the RP-LC retention time turned out to be 630 s. Regarding `Cc1ccc(CNC(=O)C2(C)CN(S(C)(=O)=O)CC(=O)N2c2cccc(Cl)c2)cc1` (stereo not given), the RP-LC retention time is 854 s.

Consider `CCn1cc(CCNC(=O)Nc2cccc(C(C)=O)c2)c2cccnc21`, for which the RP-LC retention time came out at 665 s. Take `CCN(C(=O)C1CCCN1S(=O)(=O)c1cc2c(cc1Cl)NC(=O)CO2)c1ccccc1` (stereo not given): the RP-LC retention time worked out at 836 s. Compound `Cn1cc(-c2cc3n(n2)CCC(=O)N3CCCC(=O)NCc2ccco2)c2ccccc21` showed an RP-LC retention time of 775 s.

`O=C(NC(c1ccccc1)c1ccccc1)N1CCN(CC(F)(F)F)CC1` registered an RP-LC retention time of 886 s. The compound `Cc1cccc(CNC(=O)c2cc3n(n2)CC(C)(C(=O)NCCC(C)C)N(C)C3=O)c1` (stereo not given) had an RP-LC retention time of 801 s.

The compound `Cn1cc(C(=O)Nc2ccc(C(F)(F)F)cc2)c2cccnc21` showed an RP-LC retention time of 909 s.

In turn, `COC(=O)c1cc(C)nc2c1c(=O)n(Cc1nc(-c3ccccc3OC)oc1C)c(=O)n2C` showed an RP-LC retention time of 971 s. `CC(C)CC(=O)N1CCc2c([nH]c3ccccc23)C12C(=O)N(C)c1ccc(Br)cc12` (stereo not given) registered an RP-LC retention time of 1040 s. The compound `Cc1cc(-c2nnc(-c3ccco3)o2)c(C)n1CC(=O)NCc1ccc(F)cc1F` came in with an RP-LC retention time of 857 s.

As for `O=C(Cn1cnc(-c2noc(-c3ccncc3)n2)c1)NCc1ccc(F)cc1`, the RP-LC retention time amounted to 654 s. As to `COc1ccc(CCNC(=O)C2CCN(S(C)(=O)=O)c3ccccc3O2)cc1` (stereo not given), the RP-LC retention time worked out at 828 s. In turn, `CCN(CC)C(=O)c1cnc2snc(C)c2c1N1CCC(C(=O)Nc2cc(OC)c(OC)c(OC)c2)CC1` had an RP-LC retention time of 810 s. Compound `CC(C)(Oc1ccc(Cl)cc1)C(=O)NCc1nnnn1C1CCCCC1` returned an RP-LC retention time of 945 s. For the compound `O=c1n(Cc2ccc(F)cc2Cl)nc2n1CCCCC2`, the RP-LC retention time came to 751 s. The compound `Cc1cc(C)cc(NC(=O)c2cnc(-c3ccccc3)nc2-c2ccncc2)c1` registered an RP-LC retention time of 988 s. For `Cc1ccc(CNC(=O)N2CCN(C(=O)N3C[C@H]4C[C@@H](C3)[C@H]3CCCC(=O)N3C4)CC2)cc1`, the RP-LC retention time came to 677 s. `Cc1nnc(SCC(=O)N2c3ccccc3CCc3ccccc32)s1` gave an RP-LC retention time of 897 s. The result for `COc1ncccc1CNC(=O)NC1CCCCC1` reads 713 s; that for `Cc1nc(-c2cnccn2)nc2c1CCC(=O)N2Cc1ccccc1F`, 726 s. Compound `O=C(CN1C(=O)CCc2cc(Br)ccc21)NCCc1ccccc1` had an RP-LC retention time of 870 s.

The compound `CCN(C(=O)c1ccc(OC)c(OC)c1)c1nc(-c2ccc(Br)cc2)cs1` yielded an RP-LC retention time of 1270 s. Take `Cc1ccc(C)c(CNC(=O)CN2CCN(Cc3ccc(F)cc3)C2=O)c1`: the RP-LC retention time was 862 s.

As for `O=C(Nc1ccc(F)cc1F)N1CCN(Cc2nc3cc(-c4ccccc4)ccc3o2)CC1`, the RP-LC retention time was 869 s.

As for `Cc1nn2c(CNC(=O)c3ccc(C)c(C)c3)c(C)nc2s1`, the RP-LC retention time came out at 650 s.

For `Cc1cccc2nc(-c3cccc(Br)c3)c(Nc3ccc4c(c3)OCCO4)n12`, the RP-LC retention time turned out to be 739 s.

Turning to `CCOC(=O)c1ccccc1NC(=O)Cn1nc2n(c1=O)CCCCC2`, the RP-LC retention time came to 821 s.

With `CCS(=O)(=O)Nc1cccc(C2=NN(S(=O)(=O)CC)C(c3ccco3)C2)c1` (stereo not given), the RP-LC retention time came to 753 s.

The compound `Cn1c(C2CCN(C(=O)Nc3cc(F)cc(F)c3)CC2)cc(=O)n2nccc12` had an RP-LC retention time of 695 s. The compound `O=C(Cc1c[nH]c2ccccc12)N1CCN(C(=O)c2cc(-c3cccnc3)n[nH]2)CC1` yielded an RP-LC retention time of 610 s. Take `CCCC(NC(=O)Cc1cccc(OC)c1)C(=O)Nc1nc2ccccc2[nH]1` (stereo not given): the RP-LC retention time turned out to be 700 s. `CCCNCc1ccc(-c2ccccc2)o1` came in with an RP-LC retention time of 641 s.

Regarding `COc1ccccc1N1CCN(c2cc(SCC(=O)Nc3ccc(Cl)cc3)ncn2)CC1`, the RP-LC retention time came out at 1080 s. The result for `COc1cccc(S(=O)(=O)NCc2ccc(C(=O)Nc3cccc(Cl)c3)cc2)c1` reads 922 s. The result for `CCOCN(C(=O)Cn1c(COC)nc2ccccc21)c1c(C)cccc1CC` reads 874 s. Compound `COCCCN(C(=O)c1ccccc1)C(C)C(=O)c1c(C)[nH]c(C(=O)OC)c1C` (stereo not given) returned an RP-LC retention time of 736 s. In turn, `COc1ccc2c(CCNC(=O)c3cccs3)c[nH]c2c1` gave an RP-LC retention time of 764 s.

The compound `O=C(Nc1cccc(-c2ccc(N3CCOCC3)nn2)c1)Nc1cccc(C(F)(F)F)c1` gave an RP-LC retention time of 782 s. For `CN1CCC(N(C)C(=O)CN2C(=O)C(Oc3ccc(F)cc3)C23CCCCC3)CC1` (stereo not given), the RP-LC retention time worked out at 680 s. In turn, `CCCN1C(=O)Cc2ccccc2C1C(=O)NCc1ccc2c(c1)OCO2` (stereo not given) displayed an RP-LC retention time of 765 s.

`CCc1ccc(C2=C(C)C(N3CCCN(C(=O)NC(C)C)CC3)=NS2(=O)=O)cc1` came in with an RP-LC retention time of 849 s. Regarding `CCOC1CCN(C(=O)NC2CCCC2)CC1`, the RP-LC retention time turned out to be 698 s. `O=C(Nc1cccc(C(F)(F)F)c1)C1CCN(C(=O)C2Sc3ccccc3NC2=O)CC1` (stereo not given) gave an RP-LC retention time of 862 s. Compound `CN1CCN(CCNC(=O)c2cccc(N3CCNC(c4ccccc4)C3)n2)CC1` (stereo not given) displayed an RP-LC retention time of 549 s. The result for `Cc1ccc(OCC(=O)Nc2ccc3c(c2)Sc2ncccc2C(=O)N3C)cc1` reads 866 s; that for `O=C(Cc1ccc(Cl)cc1)Nc1cnc(N2CCCC2)nc1`, 752 s; that for `CC(C)(C)CC(=O)Nc1cnc(-c2cccnc2)nc1`, 665 s. Consider `CCNC(=O)C1Cn2cccc2C(=O)N1C` (stereo not given), for which the RP-LC retention time was 569 s. `CCCn1cc(CCNC(=O)Nc2ccc(C)cc2C)c2cccnc21`: the RP-LC retention time turned out to be 781 s.

`Fc1ccc(Nc2c(-c3ccccc3)nc3ccccn23)cc1` came in with an RP-LC retention time of 689 s. `O=C(CC(c1ccccc1)c1ccccc1)NCC(O)c1cccs1` (stereo not given): the RP-LC retention time was 809 s. In turn, `COc1ccc(-c2nnc(-c3ccccc3Cl)o2)cc1S(=O)(=O)N1CCCCC1` yielded an RP-LC retention time of 1060 s.

In turn, `O=C(Nc1ccccc1F)C1CCCN(S(=O)(=O)c2c[nH]c(C(=O)N3CCCCCC3)c2)C1` (stereo not given) registered an RP-LC retention time of 880 s. The result for `CCOC(=O)C1CCCN(C(=O)CCCn2c(=O)c3cccn3c3ccc(Br)cc32)C1` (stereo not given) reads 971 s; that for `Cc1ccc(CNS(=O)(=O)c2cc(-c3[nH]ncc3C(=O)N3CCCC3)oc2C)cc1`, 725 s. The result for `Cc1nc(-c2ccc3c(c2)CCN3C(=O)COc2ccc(Cl)cc2)no1` reads 976 s.

With `CCN(CC)S(=O)(=O)c1ccc2c(c1)CC(C(=O)N1CCC(C)CC1)N2C(C)=O` (stereo not given), the RP-LC retention time is 849 s. The result for `Cc1cc(C)cc(NC(=O)Cn2c(=O)c3cc(C4CC4)nn3c3ncccc32)c1` reads 837 s; that for `Cc1cccc(NC(=O)Cn2nc3nc(N4CCCC(C)C4)ccn3c2=O)c1` (stereo not given), 791 s. Consider `CCn1c(C)nnc1SCc1nc(-c2ccc(OC)c(OC)c2)oc1C`, for which the RP-LC retention time came to 651 s.

In turn, `CC(C)c1cc(C(=O)Nc2ccc(Cl)cc2)nc2ccnn12` showed an RP-LC retention time of 1060 s. With `O=S(=O)(c1ccccc1)N1CCC(c2noc(C3CC3)n2)C1` (stereo not given), the RP-LC retention time came out at 866 s.

As to `COc1ccc(CC(C)(O)CNC(=O)c2cc(Br)ccc2Cl)cc1` (stereo not given), the RP-LC retention time is 822 s. Take `CN1CCC(OC2CCN(C(=O)c3ccc(F)cc3Cl)CC2)CC1`: the RP-LC retention time was determined as 583 s. As for `Cc1nn(-c2ccccc2)c(C)c1S(=O)(=O)N1CCC(C(=O)N2CCCCCC2)CC1`, the RP-LC retention time amounted to 912 s. For `COC(=O)c1ncn2c1C(=O)N(c1ccc(C)cc1)C(C)(C(=O)NCc1ccc(C)cc1)C2` (stereo not given), the RP-LC retention time came to 747 s. Take `COC(=O)c1ccc2c(=O)n(-c3cc(F)cc(F)c3)c(N3CCOCC3)nc2c1`: the RP-LC retention time was 945 s. On to `COc1cc(OC)c(NC(=O)Cn2nc3n(c2=O)CCCC3)cc1Cl`, for which the RP-LC retention time amounted to 673 s. For the compound `CCOc1ccc(CC(=O)N2CCN(c3cc(CC)n4cnnc4n3)CC2)cc1`, the RP-LC retention time was 634 s. The result for `COc1ccc(-c2ccnc3nc(-c4cccs4)nn23)c(F)c1` reads 905 s; that for `CCn1cc(S(=O)(=O)N2CC(Cn3c(C)cnc3-c3cccnc3)C2)cn1`, 576 s. The result for `O=C(NCC1CC1)C1CC(=O)N(c2ccc3c(c2)CCN3C(=O)C2CCC2)C1` (stereo not given) reads 719 s; that for `Cc1ccc(C)c(S(=O)(=O)N2CCC3(CC2)NCCN=C3NCc2ccccc2F)c1`, 757 s; that for `COc1ccc(NC(=O)N2CCC(c3nc(C(=O)N(C)C)c(C)o3)CC2)cc1`, 676 s. The result for `O=C1NCCCCCCN(C(=O)c2cnccn2)[C@H]2CCC[C@@H]12` reads 632 s. On to `CCS(=O)(=O)c1nc2ccc(NS(=O)(=O)c3cc(F)ccc3F)cc2s1`, for which the RP-LC retention time was determined as 854 s. Consider `CCc1ccc(NC(=O)Cn2c(N)nc(C)c(C)c2=O)cc1`, for which the RP-LC retention time was 596 s.
